Data set [1] is described as follows: Dissolution study in water at ambient temperature (HPLC). Type of data set: physicochemical. On the procedure: HPLC analyses were carried out on an Agilent 1100 series instrument equipped with a UV detector using the following materials and operating parameters:
Dissolution studies were carried out for VX-745 at ambient temperature using water, as described by the HPLC Analysis protocol described above.
Dissolution studies were carried out for the CC-6 at ambient temperature using water, as described by the HPLC Analysis protocol described above.
Dissolution studies were carried out for the CC-11 at ambient temperature using water, as described by the HPLC Analysis protocol described above.

Data set [2] is described as follows: Dissolution study in FaSSIF at ambient temperature (HPLC; XRPD of remaining solids). Particulars: for ending solubility / peak solubility: medium: FaSSIF; for ending solubility / peak solubility / Concentration: ambient temperature; for Concentration: FaSSIF, 3 hrs.
Description: (§1) The first dissolution medium tested was fasted state simulated intestinal fluid (FaSSIF) at ambient temperature. […] The second dissolution medium tested was fed state simulated intestinal fluid (FeSSIF) at ambient temperature.
(§2) Upon the completion of each experiment, the remaining solid was recovered and analyzed by XRPD.
(§3) High-Performance Liquid Chromatography (HPLC) Analyses.
A short description of data set [3]: Dissolution study in FeSSIF at ambient temperature (HPLC; XRPD of remaining solids). The conditions noted are these: for Concentration: FeSSIF; for Concentration / ending solubility / peak solubility: ambient temperature; for ending solubility / peak solubility: medium: FeSSIF.
Description: as §1, §2, §3
The nature of data set [4]: Estimated solubility of VX-745 in solvents (solvent aliquot addition, visual inspection). The data set is classed as physicochemical. Particulars: thermodynamic from solid. On the procedure:
Solubilities of VX-745 in several solvents were estimated. The experiments were carried out by adding test solvents in aliquots to weighed portions of solid. Whether dissolution had occurred was judged by visual inspection after addition of each solvent aliquot. Solubility numbers were calculated by dividing the total amount of solvent used to dissolve the sample by the weight of the sample. The actual solubilities may be greater than the numbers calculated because of the use of solvent aliquots that were too large or because of slow dissolution rates. […] The solubility number is expressed as “greater than or equal to” if dissolution occurred on addition of the first solvent aliquot.

The mark [5] stands for this setting: FaSSIF (fasted state simulated intestinal fluid), fassif, thermodynamic from solid.
The mark [6] stands for this setting: FeSSIF (fed state simulated intestinal fluid), fessif, thermodynamic from solid.

Results on four molecules are retold here after patent US11466008B2, “Co-crystals of neflamapimod (VX-745)” (EIP Pharma, LLC, priority 2017, dated 2022).

Each structure is given as a SMILES string. Converted amounts (≈) assume the structure as drawn. Some results are limits rather than exact numbers.

For orientation: Solubility means the concentration that dissolves in the medium under given conditions. With `O=C(O)CCCC(=O)O.O=c1ncn2nc(Sc3ccc(F)cc3F)ccc2c1-c1c(Cl)cccc1Cl` [CC-6], the Solubility worked out at 23.78 µg/mL in data set [1] (2 mins); 39.17 µg/mL in data set [1] (5 mins); 51.39 µg/mL in data set [1] (10 mins); 67.49 µg/mL in data set [1] (15 mins); 68.93 µg/mL in data set [1] (25 mins); 65.28 µg/mL in data set [1] (40 mins). Also, the Solubility in data set [1] (1 hr) was 59.85 µg/mL; in data set [1] (2 hrs), 54.11 µg/mL; in data set [1] (3 hrs), 50.75 µg/mL; in data set [1] (4 hrs) it was 57.07 µg/mL. For the same molecule, the values for the ending solubility in data set [2] and in data set [3] were 1.59 µg/mL and 2.38 µg/mL, respectively. Besides, the peak solubility in data set [2] turned out to be 3.75 µg/mL; in data set [3], 1.87 µg/mL. The same molecule yielded a Concentration in data set [3] (3 mins) of 1280 ng/mL.

Take `O=c1ncn2nc(Sc3ccc(F)cc3F)ccc2c1-c1c(Cl)cccc1Cl.Oc1ccccc1` [CC-11]: the Solubility in data set [1] (2 mins) is 10.19 µg/mL; in data set [1] (5 mins) it was 57.50 µg/mL; in data set [1] (10 mins) it was 43.26 µg/mL; in data set [1] (15 mins), 36.28 µg/mL; in data set [1] (25 mins), 35.33 µg/mL; in data set [1] (40 mins), 21.33 µg/mL. For the same molecule, the Solubility was 15.09 µg/mL in data set [1] (1 hr), 17.11 µg/mL in data set [1] (2 hrs), 12.30 µg/mL in data set [1] (3 hrs) and 13.98 µg/mL in data set [1] (4 hrs).

Regarding `O=c1ncn2nc(Sc3ccc(F)cc3F)ccc2c1-c1c(Cl)cccc1Cl.[Cl][Zn][Cl]` [CC-18], the Concentration in data set [2] is 23630 ng/mL; in data set [3] (2 mins (Table 17)) it was 88500 ng/mL; in data set [3] (5 mins (Table 17)) it was 68530 ng/mL; in data set [3] (10 mins (Table 17)) it was 56840 ng/mL; in data set [3] (15 mins (Table 17)), 59400 ng/mL; in data set [3] (25 mins (Table 17)), 47550 ng/mL. Moreover, the Concentration in data set [3] (40 mins (Table 17)) was found to be 50990 ng/mL; in data set [3] (1 hr (Table 17)), 47830 ng/mL; in data set [3] (2 hrs (Table 17)) it was 50170 ng/mL; in data set [3] (3 hrs (Table 17)), 47340 ng/mL; in data set [3] (4 hrs (Table 17)), 49240 ng/mL; in data set [3] (24 hrs (Table 17)), 34180 ng/mL. The figures for the ending solubility in data set [2] and in data set [3] were 22.57 µg/mL and 34.18 µg/mL, respectively. The peak solubility in data set [2] amounted to 34.49 µg/mL; in data set [3] it was 88.50 µg/mL.

As usually defined, the solubility is how much of the substance goes into solution per volume. A lower solubility goes with little dissolved substance. Regarding `O=c1ncn2nc(Sc3ccc(F)cc3F)ccc2c1-c1c(Cl)cccc1Cl` [VX-745, 5-(2,6-dichlorophenyl)-2-(2,4-difluorophenylthio)-6H-pyrimido[1,6-b]pyridazin-6-one], the Solubility is 7000 µg/mL (≈ 16000 µM) in data set [4] (organic solvent or mixture, solvent acetone); 9000 µg/mL (≈ 20600 µM) in data set [4] (organic solvent or mixture, solvent acetonitrile); 2000 µg/mL (≈ 4580 µM) in data set [4] (organic solvent or mixture, solvent ethanol); less than 1000 µg/mL in data set [4] (organic solvent or mixture, solvent ethyl acetate); 1000 µg/mL (≈ 2290 µM) in data set [4] (organic solvent or mixture, solvent isopropyl alcohol); 10000 µg/mL (≈ 22900 µM) in data set [4] (organic solvent or mixture, solvent methanol). Also, the Solubility in data set [4] (organic solvent or mixture, solvent tetrahydrofuran (THF)) was 4000 µg/mL (≈ 9170 µM); in data set [4] (solvent water) it was less than 1000 µg/mL. For the same molecule, the concentration in solution in data set [1] (thermodynamic from solid, 2 mins) (solubility at 2 min) came to 11.3 µg/mL (≈ 25.9 µM). Moreover, the solubility at 5 min in data set [1] (thermodynamic from solid, 5 mins) was 15.7 µg/mL (≈ 35.9 µM); in data set [2] (setting [5]) it was 17.8 µg/mL (≈ 40.8 µM). In data set [1] (thermodynamic from solid, 10 mins), this molecule registered a solubility at 10 min of 14.9 µg/mL (≈ 34.2 µM). This molecule also returned a solubility at 15 min in data set [1] (thermodynamic from solid, 15 mins) of 17.8 µg/mL (≈ 40.8 µM). The molecule further returned a solubility at 25 min in data set [1] (thermodynamic from solid, 25 mins) of 15.5 µg/mL (≈ 35.6 µM). The molecule also came in with a solubility at 40 min in data set [1] (thermodynamic from solid, 40 mins) of 10.7 µg/mL (≈ 24.5 µM). Also, in data set [1] (thermodynamic from solid, 1 hr), the solubility at 1 h amounted to 6.59 µg/mL (≈ 15.1 µM). In data set [1] (thermodynamic from solid, 2 hrs), this molecule displayed a solubility at 2 h of 5.67 µg/mL (≈ 13 µM). Also, the solubility at 3 h in data set [1] (thermodynamic from solid, 3 hrs) was 6.32 µg/mL (≈ 14.5 µM); in data set [3] (setting [6]), 21.4 µg/mL (≈ 48.9 µM). Moreover, the concentration in solution in data set [1] (thermodynamic from solid, 4 hrs) (solubility at 4 h) came to 11.3 µg/mL (≈ 25.9 µM). The solubility at 24 h in data set [2] (setting [5]) was 9.07 µg/mL (≈ 20.8 µM); in data set [3] (setting [6]), 14 µg/mL (≈ 32.1 µM). The Concentration came to 5810 ng/mL in data set [2] and 21350 ng/mL in data set [3] (3 hrs).
